Assay results reported in BindingDB's records for doi:10.1021/acs.jmedchem.9b01183 (Univ. Lille, 2020).

Assay: Inhibition of STAT5b in mouse BaF3/FLT3-ITD cells assessed as reduction in cell proliferation

| IC50 [µM] | Structure (SMILES) |
| --- | --- |
| 25 | COC(=O)c1nonc1NCn1cnnn1 |
| 153 | O=C(O)c1nonc1NCn1cnnn1 |
| 76 | O=C(O)c1nonc1NCn1nnnc1Cc1ccccc1 |
